Reference: publication PMC12888856 (Antimicrobial Agents and Chemotherapy, 2025)

Assays:
Type in all cases: cell-based, Influenza A virus
A/Malaya/302/1954 (H1N1) = assay: microbe, parasite or virus in culture; details: read-out: EC50
[1] = tested on: Baloxavir-resistant A/Puerto Rico/8/1934 (PA I38T)
[2] = tested on: Oseltamivir-resistant A/Weiss/1943 (NA H275Y)

Row | SMILES | EC50 (A/Malaya/302/1954 (H1N1)) | EC50 [1] | EC50 [2] | Fold shift [1] | Fold shift [2]
1 | O=C1c2c(O)c(=O)ccn2N([C@@H]2c3ccccc3SCc3c2ccc(F)c3F)[C@@H]2COCCN12 [Baloxavir, baloxavir, reference compound] | 1.1 nM | 105 nM | 0.42 nM |  | 
2 | CCOC(=O)C1=C[C@@H](OC(CC)CC)[C@H](NC(C)=O)[C@@H](N)C1 [Oseltamivir, oseltamivir, reference compound] | 1150 nM | 2810 nM | > 78400 nM | 2.89 | >74.66
3 | COC[C@@]1(C)COC[C@@H](COc2ccc(-c3cc(C(N)=O)c(O)nc3C(F)(F)F)cc2)O1 [VNT-101] | > 50000 nM |  | 118 nM |  | 
